Data as given in ChEMBL document CHEMBL4428037 (J Med Chem, 2016).
pIC50: −log10 of the molar value. Active and inactive are the calls of the source. No cut-off for these calls is given here.

How the values were obtained:
A549 [1] = assay: Growth inhibition of human A549 cells incubated for 48 hrs by MTT assay; type: functional, cell-based; conditions: A549, 48 h
PC-3 = assay: Growth inhibition of human PC3 cells incubated for 72 hrs by MTT assay; type: functional, cell-based; conditions: PC-3, 72 h
A549 [2] = assay: Induction of apoptosis in human A549 cells assessed as necrotic cells level at 20 nM incubated for 24 hrs by Annexin V-FITC/PI staining based FACS flow cytometry (reference value: 0.37%); type: functional
A549 [3] = assay: Induction of apoptosis in human A549 cells assessed as induction of nucleus fragmentation at 40 nM incubated for 24 hrs microscopy; type: functional, cell-based
A549 [4] = assay: Induction of apoptosis in human A549 cells assessed as live cells level at 40 nM incubated for 24 hrs by Annexin V-FITC/PI staining based FACS flow cytometry (reference value: 96.83%); type: functional
A549 [5] = assay: Cytotoxicity against human A549 cells assessed as reduction in cell viability at 5 nM to 80 nM incubated for 24 hrs by trypan blue staining assay; type: cell-based; conditions: a549, 24 h, 0.005 µM
Tubulin = Tubulin (Sus scrofa, UniProt P02554+P02550); assay: (§1) Inhibition of porcine brain tubulin polymerization incubated for 60 mins by fluorescence-based assay
Tubulin (Sus scrofa) = Tubulin (Sus scrofa) (UniProt P02554+P02550); assay: as §1
Sequence of Tubulin (Sus scrofa) (P02550 whole entry, looked up): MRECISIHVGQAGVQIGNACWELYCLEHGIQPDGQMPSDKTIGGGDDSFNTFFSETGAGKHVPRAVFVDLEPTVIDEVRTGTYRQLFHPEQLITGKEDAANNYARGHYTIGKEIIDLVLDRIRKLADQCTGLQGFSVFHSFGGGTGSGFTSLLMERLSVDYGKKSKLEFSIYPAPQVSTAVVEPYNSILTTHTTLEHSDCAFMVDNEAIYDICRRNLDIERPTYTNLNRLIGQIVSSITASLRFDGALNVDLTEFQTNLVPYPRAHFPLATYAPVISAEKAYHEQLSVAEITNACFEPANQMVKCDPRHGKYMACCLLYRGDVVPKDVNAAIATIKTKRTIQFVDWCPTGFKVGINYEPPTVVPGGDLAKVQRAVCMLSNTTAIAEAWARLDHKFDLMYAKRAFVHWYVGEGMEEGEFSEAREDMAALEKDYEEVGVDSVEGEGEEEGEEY
Sequence of Tubulin (Sus scrofa) (P02554 whole entry, looked up): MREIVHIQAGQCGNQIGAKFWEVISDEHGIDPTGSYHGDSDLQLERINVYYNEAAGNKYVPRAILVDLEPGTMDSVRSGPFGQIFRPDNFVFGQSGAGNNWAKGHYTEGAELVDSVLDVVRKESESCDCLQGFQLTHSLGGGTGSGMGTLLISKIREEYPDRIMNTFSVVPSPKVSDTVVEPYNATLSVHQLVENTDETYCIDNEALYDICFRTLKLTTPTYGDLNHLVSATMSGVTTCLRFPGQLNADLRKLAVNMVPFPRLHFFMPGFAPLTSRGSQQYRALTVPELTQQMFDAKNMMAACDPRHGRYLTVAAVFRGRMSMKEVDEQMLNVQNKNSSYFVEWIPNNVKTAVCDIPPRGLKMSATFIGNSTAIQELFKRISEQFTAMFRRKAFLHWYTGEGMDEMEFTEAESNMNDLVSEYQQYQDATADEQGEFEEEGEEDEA

NCI-H460 [6] = assay: Inhibition of colony formation in human NCI-H460 cells at 10 nM incubated for 9 days by crystal violet staining based assay; type: functional; conditions: NCI-H460, 216 h
NCI-H460 [7] = assay: Growth inhibition of human NCI-H460 cells incubated for 48 hrs by MTT assay; type: functional, cell-based; conditions: NCI-H460, 48 h
A549 [8] = assay: Induction of apoptosis in human A549 cells assessed as late apoptotic cells level at 40 nM incubated for 24 hrs by Annexin V-FITC/PI staining based FACS flow cytometry (reference value: 2.15%); type: functional
A549 [9] = assay: Induction of cell cycle arrest in human A549 cells assessed as accumulation at G2/M phase incubated for 24 hrs by propidium iodide staining based FACS flow cytometry; type: functional
HUVEC = assay: Inhibition of capillary tube formation in HUVEC assessed as reduction in tube-like structures formation at 40 nM incubated for 8 hrs by fluorescence microscopy based 3D-matrigel assay; type: functional; conditions: Homo sapiens
A549 [10] = assay: Induction of apoptosis in human A549 cells assessed as early apoptotic cells level at 10 nM incubated for 24 hrs by Annexin V-FITC/PI staining based FACS flow cytometry (reference value: 0.65%); type: functional

- pIC50 (A549 [1]): 7.38
- pIC50 (PC-3): 7.72
- IC50 (Tubulin): 4620 nM
- inhibition (Tubulin (Sus scrofa)): Dose-dependent effect
- pIC50 (NCI-H460 [7]): 7.43
SMILES: CCOc1cccc(Nc2nn(C)c3c2Cc2cc(OCC)c(OCC(N)=O)cc2-3)c1
- Activity (A549 [2]): 0.84%
- Activity (A549 [3]): Active
- Activity (A549 [4]): 84.24%
- Activity (A549 [5]): Non-Toxic
- inhibition at 0.01 µM (NCI-H460 [6]): 97.3%
- Activity (A549 [8]): 5.47%
- Activity (A549 [9]): Dose-dependent effect
- inhibition at 0.04 µM (HUVEC): 69%
- Activity (A549 [10]): 1.01%
